In US8557741B2, “3-aminocarbonyl-substituted benzoylcyclohexanediones and their use as herbicides” (Bayer CropScience AG, priority 2010, dated 2013):

Columns and labels:
Format in all cases: in vivo
Veronica persica [1] = assay: Post-emergence herbicidal action against harmful plants; settings: 504 h, read-out: Herbicidal action against VERPE; for pest or weed control at 80 g/ha: dosage 80 g/ha, visual rating after about 3 weeks (Table D); for pest or weed control at 20 g/ha: dosage 20 g/ha, visual rating after about 3 weeks (Table F)
Text: (§1) The abbreviations used in the tables below denote: • ABUTH Abutilon theophrasti • AMARE Amaranthus retroflexus • ECHCG Echinochloa crus galli • PHBPU Phartoitis purpureum • STEME Stellaria media • ALOMY Alopecurus myosuroides • AVEFA Avena fatua • MATIN Matricaria inodora • POLCO Fallopia convolvulus • VERPE Veronica persica 1. Pre-emergence Herbicidal Action Against Harmful Plants Seeds of monocotyledonous and dicotyledonous weed and crop plants are placed in sandy loam in wood-fibre pots, covered with soil and cultivated in a greenhouse under good growth conditions. 2 to 3 weeks after sowing, the test plants are treated at the one-leaf stage. The compounds according to the invention, formulated in the form of wettable powders (WP) or as emulsion concentrates (EC), are then sprayed as aqueous suspension or emulsion at a water application rate of 600 to 800 I/ha (converted) with the addition of 0.2% of wetting agent onto the green parts of the plants. After the test plants have been kept in the greenhouse under optimum growth conditions for about 3 weeks, the activity of the preparations is rated visually in comparison to untreated controls (herbicidal activity in percent (%): 100% activity=the plants have died, 0% activity=control plants, —=not tested).

Stellaria media [2] = assay: as above; settings: 504 h, read-out: Herbicidal action against STEME; for pest or weed control at 80 g/ha: dosage 80 g/ha, visual rating after about 3 weeks (Table D); for pest or weed control at 20 g/ha: dosage 20 g/ha, visual rating after about 3 weeks (Table F)
Text: as §1

Echinochloa crus galli [3] = assay: as above; settings: 504 h, read-out: Herbicidal action against ECHCG; for pest or weed control at 80 g/ha: dosage 80 g/ha, visual rating after about 3 weeks (Table D)
Text: as §1

Phartoitis purpureum = assay: as above; settings: 504 h; for pest or weed control at 80 g/ha: dosage 80 g/ha, visual rating after about 3 weeks (Table D), read-out: Herbicidal action against PHBPU; for pest or weed control at 20 g/ha: dosage 20 g/ha, visual rating after about 3 weeks (Table F), read-out: Herbicidal action against PHPBU
Text: as §1

Fallopia convolvulus = assay: as above; settings: 504 h, dosage 80 g/ha, visual rating after about 3 weeks (Table D), read-out: Herbicidal action against POLCO
Text: as §1

Amaranthus retroflexus [4] = assay: as above; settings: 504 h, read-out: Herbicidal action against AMARE; for pest or weed control at 80 g/ha: dosage 80 g/ha, visual rating after about 3 weeks (Table D)
Text: as §1

Abutilon theophrasti [5] = assay: as above; settings: 504 h, read-out: Herbicidal action against ABUTH; for pest or weed control at 80 g/ha: dosage 80 g/ha, visual rating after about 3 weeks (Table D)
Text: as §1

Veronica persica [6] = assay: Pre-emergence herbicidal action against harmful plants; settings: 504 h, read-out: Herbicidal action against VERPE; for pest or weed control at 320 g/ha: dosage 320 g/ha, visual assessment after 3 weeks (Table A)
Text: (§2) The abbreviations used in the tables below denote: • ABUTH Abutilon theophrasti • AMARE Amaranthus retroflexus • ECHCG Echinochloa crus galli • PHBPU Phartoitis purpureum • STEME Stellaria media • ALOMY Alopecurus myosuroides • AVEFA Avena fatua • MATIN Matricaria inodora • POLCO Fallopia convolvulus • VERPE Veronica persica 1. Pre-emergence Herbicidal Action Against Harmful Plants Seeds of monocotyledonous and dicotyledonous weed plants and crop plants are placed in wood-fibre pots in sandy loam and covered with soil. The compounds according to the invention and the compounds known from the prior art, formulated in the form of wettable powders (WP) or as emulsion concentrates (EC), are then applied as aqueous suspension or emulsion at a water application rate of 600 to 800 I/ha (converted) with the addition of 0.2% of wetting agent to the surface of the covering soil. After the treatment, the pots are placed in a greenhouse and kept under good growth conditions for the test plants. The visual assessment of the damage to the test plants is carried out after a trial period of 3 weeks by comparison with untreated controls (herbicidal activity in percent (%): 100% activity=the plants have died, 0% activity=like control plants, —=not tested). The results of comparative table A show the compounds according to the invention have a higher herbicidal activity than the compounds of the greatest structural similarity known from the closest prior art.

Stellaria media [7] = assay: as above; settings: 504 h, read-out: Herbicidal action against STEME; for pest or weed control at 320 g/ha: dosage 320 g/ha, visual assessment after 3 weeks (Table A)
Text: as §2

Echinochloa crus galli [8] = assay: as above; settings: Echinochloa, 504 h, dosage 320 g/ha, visual assessment after 3 weeks (Table A), read-out: Herbicidal action against ECHCG
Text: as §2

Alopecurus myosuroides = assay: as above; settings: dosage 320 g/ha, visual assessment after 3 weeks (Table A)
Text: as §2

Matricaria inodora [9] = assay: as above; settings: Tripleurospermum inodorum, 504 h, dosage 320 g/ha, visual assessment after 3 weeks (Table A), read-out: Herbicidal action against MATIN
Text: as §2

Amaranthus retroflexus [10] = assay: as above; settings: 504 h, read-out: Herbicidal action against AMARE; for pest or weed control at 320 g/ha: dosage 320 g/ha, visual assessment after 3 weeks (Table A)
Text: as §2

Abutilon theophrasti [11] = assay: as above; settings: Abutilon theophrasti, 504 h, read-out: Herbicidal action against ABUTH; for pest or weed control at 320 g/ha: dosage 320 g/ha, visual assessment after 3 weeks (Table A); for pest or weed control at 80 g/ha: dosage 80 g/ha, visual assessment after 3 weeks (Table B)
Text: as §2

Matricaria inodora [12] = assay: Post-emergence herbicidal action against harmful plants; settings: Tripleurospermum inodorum, 504 h, read-out: Herbicidal action against MATIN
Text: as §1

Avena fatua = assay: Pre-emergence herbicidal action against harmful plants; settings: dosage 320 g/ha, visual assessment after 3 weeks (Table A)
Text: as §2

VIOTR [13] = assay: Post-emergence herbicidal action against harmful plants; settings: dosage 20 g/ha, visual rating after about 3 weeks (Table F)
Method: as §1, with “Seeds” for “The abbreviations used in the tables below denote: • ABUTH Abutilon theophrasti • AMARE Amaranthus retroflexus • ECHCG Echinochloa crus galli • PHBPU Phartoitis purpureum • STEME Stellaria media • ALOMY Alopecurus myosuroides • AVEFA Avena fatua • MATIN Matricaria inodora • POLCO Fallopia convolvulus • VERPE Veronica persica 1. Pre-emergence Herbicidal Action Against Harmful Plants Seeds”

VIOTR [14] = assay: Pre-emergence herbicidal action against harmful plants; settings: dosage 80 g/ha, visual assessment after 3 weeks (Table B)
Text: as §2, with “Seeds” for “The abbreviations used in the tables below denote: • ABUTH Abutilon theophrasti • AMARE Amaranthus retroflexus • ECHCG Echinochloa crus galli • PHBPU Phartoitis purpureum • STEME Stellaria media • ALOMY Alopecurus myosuroides • AVEFA Avena fatua • MATIN Matricaria inodora • POLCO Fallopia convolvulus • VERPE Veronica persica 1. Pre-emergence Herbicidal Action Against Harmful Plants Seeds”

[15] = dosage 20 g/ha, visual rating after about 3 weeks (Table F)
[16] = dosage 80 g/ha, visual assessment after 3 weeks (Table B)

| SMILES | pest or weed control at 80 g/ha (Veronica persica [1]) [%] | pest or weed control at 80 g/ha (Stellaria media [2]) [%] | pest or weed control at 80 g/ha (Echinochloa crus galli [3]) [%] | pest or weed control at 80 g/ha (Phartoitis purpureum) [%] | pest or weed control at 80 g/ha (Fallopia convolvulus) [%] | pest or weed control at 80 g/ha (Amaranthus retroflexus [4]) [%] | pest or weed control at 80 g/ha (Abutilon theophrasti [5]) [%] | pest or weed control at 320 g/ha (Veronica persica [6]) [%] | pest or weed control at 320 g/ha (Stellaria media [7]) [%] | pest or weed control at 320 g/ha (Echinochloa crus galli [8]) [%] | pest or weed control at 320 g/ha (Matricaria inodora [9]) [%] | pest or weed control at 320 g/ha (Amaranthus retroflexus [10]) [%] | pest or weed control at 320 g/ha (Abutilon theophrasti [11]) [%] | pest or weed control at 20 g/ha (Veronica persica [1]) [%] | pest or weed control at 20 g/ha (Stellaria media [2]) [%] | pest or weed control at 20 g/ha (Phartoitis purpureum) [%] | Herbicidal action against VIOTR (VIOTR [13]) [%] | pest or weed control at 80 g/ha (Abutilon theophrasti [11]) [%] | also measured |
| --- | --- | --- | --- | --- | --- | --- | --- | --- | --- | --- | --- | --- | --- | --- | --- | --- | --- | --- | --- |
| CCS(=O)(=O)c1ccc(C(=O)C2=C(O)CCCC2=O)c(Cl)c1OCC(=O)N(C)C [Compound S5, reference compound] | 100 | 80 | 40 | 60 | 20 | 80 | 90 | 100 | 90 | 100 | 90 | 100 | 90 |  |  |  |  |  | Herbicidal action against ALOMY (Alopecurus myosuroides): 0% |
| CCN(C)C(=O)COc1c(S(C)(=O)=O)ccc(C(=O)C2=C(O)CCCC2=O)c1Cl [Compound S7, reference compound] | 100 | 90 | 60 | 90 | 10 | 70 | 90 | 100 | 90 | 80 | 100 | 100 | 80 |  |  |  |  |  | pest or weed control at 80 g/ha (Matricaria inodora [12]; dosage 80 g/ha, visual rating after about 3 weeks (Table D)): 80%; Herbicidal action against AVEFA (Avena fatua): 0% |
| CCS(=O)(=O)c1ccc(C(=O)C2=C(SCC(=O)OC)CCCC2=O)c(Cl)c1OCC(=O)N(C)C [Compound S9, reference compound] |  |  |  |  |  |  |  |  |  |  |  |  |  | 80 | 70 | 60 | 60 | 20 | pest or weed control at 20 g/ha (Echinochloa crus galli [3]; [15]): 90%; pest or weed control at 20 g/ha (Abutilon theophrasti [5]; [15]): 80%; pest or weed control at 80 g/ha (Veronica persica [6]; [16]): 20%; pest or weed control at 80 g/ha (Amaranthus retroflexus [10]; [16]): 40% |
| CCS(=O)(=O)c1ccc(C(=O)C2=C(O)CCCC2=O)c(Cl)c1OC(C)C(=O)NC (centres unmarked) [Compound S11, reference compound] |  |  |  |  |  |  |  |  |  |  |  |  |  | 90 | 80 | 70 | 70 | 70 | Herbicidal action against VIOTR (VIOTR [14]): 40%; pest or weed control at 20 g/ha (Matricaria inodora [12]; [15]): 70%; pest or weed control at 20 g/ha (Amaranthus retroflexus [4]; [15]): 90%; pest or weed control at 80 g/ha (Stellaria media [7]; [16]): 30% |
